According to article PMC9465256, “Discovering monoacylglycerol lipase inhibitors by a combination of fluorogenic substrate assay and activity-based protein profiling” (Frontiers in Pharmacology, 2022):

Key:
[1] = tested on: serine hydrolases labeled by FP-TAMRA in cancer cells; assay: Competitive ABPP in cancer cell lysates: selectivity / potential targets; assay type: biochemical; settings: 100 µM, FP-TAMRA 500 nM, in-gel analysis
Method: To identify the potential off-targets of the compounds with anti-cancer activities, ABPP was applied. Cancer cells were seeded in the dishes and were washed with PBS, scraped, centrifugated (3,000 × g, 3 min) and pellets snap frozen in liquid in nitrogen. For ABPP experiments, the cell pellets were lysed by probe sonication (3 × 10 bursts) in PBS, followed by the determination of protein concentration of the intact cell lysate by Qubit assay. Subsequently, 20 µl of the cell lysate (1 mg/ml) was preincubated with 0.5 µl of DMSO (vehicle) or inhibitor (100 μM, finial concentration) for 30 min, followed by the treatment with FP-TAMRA (500 nM, final concentration) for 20 min. The reactions were then quenched by 10 µl sample buffer (×4). The obtained samples were directly loaded and resolved on SDS-PAGE gel (10% acrylamide). The gel-based ABPP results were then scanned and analyzed using a ChemiDoc MP system (Cy3 settings, BioRad).

[2] = tested on: OVCAR-3 cells; assay: Cell viability assay (CCK-8), OVCAR-3; assay type: cell-based; settings: OVCAR-3, 48 h; for IC50: Homo sapiens, read-out: Antiproliferation activity (pIC50 ± SEM) OVCAR-3 (converted)
Method: Various cancer cell lines, including human colon cancer cell line HT-29, ovarian cell line OVCAR-3, melanoma cell line B16-F10, skin squamous cancer cells A431, cervical cancer cells Hela, lung cancer cell lines A549, H1975, and HCC827, were purchased from American type culture collection (ATCC). A431, H1975, B16-F10, OVCAR-3, HT-29, HCC827, Hela, and A549 cells were cultured in Dulbecco’s modified Eagle medium (DMEM, Gibco) containing 10% fetal bovine serum (FBS, Gibco), penicillin (100 U/ml) and streptomycin (100 μg/ml). All cell lines were maintained in a humidified 37°C incubator with 5% CO2. The medium was refreshed every 2–3 days and the cells were passaged at ∼90% confluence by adding the fresh medium, followed by vigorously pipetting the resuspend cells. Of note, the cells were only washed with PBS when a significant number of dead cells were observed.
The antiproliferation activity of the compounds against the cancer cell lines was evaluated using Cell Counting Kit-8. Briefly, cells (∼1,000 per well) in 100 µl of culture medium were plated in a 96-well plate for 24 h and 100 µl of medium with different concentrations of the tested compounds was added to each well for 48 h. Then 10 μl of CCK8 solution (#CK04, Dojindo) was added and incubated at 37°C for 2 h. The absorbance of each well was measured with a plate reader (BioTeck) at 450 nm. Cell viability was calculated as follows: cell viability (%) = [(As-Ab)/(Ac-Ab)] × 100. Among them, As represents the absorbance of experimental wells, Ab represents the absorbance of blank wells and Ac represents the absorbance of control wells. The experiments were repeated at least three times and IC50 values were determined by plotting a log(inhibitor) v. s normalized response (Variable slope) dose–response curve generated using GraphPad Prism software.

[3] = biological target: T1, human ABHD6 (Homo sapiens, UniProt Q9BV23); assay: ABHD6 activity assay (AA-HNA fluorogenic substrate); assay type: biochemical
T1 construct: expressed in transfected cells; host or cells: HEK293T (transient transfection; membrane fraction)
T1 sequence (Q9BV23 1-337): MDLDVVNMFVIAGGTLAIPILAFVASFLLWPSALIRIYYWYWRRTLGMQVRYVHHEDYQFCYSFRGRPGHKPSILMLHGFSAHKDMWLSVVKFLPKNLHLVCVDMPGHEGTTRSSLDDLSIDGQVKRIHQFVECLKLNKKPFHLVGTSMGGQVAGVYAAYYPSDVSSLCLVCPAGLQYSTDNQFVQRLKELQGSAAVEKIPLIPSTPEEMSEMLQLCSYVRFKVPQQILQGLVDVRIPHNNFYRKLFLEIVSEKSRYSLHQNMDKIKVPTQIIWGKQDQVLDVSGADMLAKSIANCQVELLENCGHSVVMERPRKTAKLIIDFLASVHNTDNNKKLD
Method in brief: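 Membranes from HEK293T cells transiently overexpressing human ABHD6 (50 μg/ml final) were preincubated 30 min with inhibitor in 40 mM HEPES pH 7.5, 0.1 mg/ml BSA, 5% DMSO. Hydrolysis of 200 µM AA-HNA was followed by fluorescence for 30 min, activity taken as the 5–15 min slope.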

[4] = 100 µM, AA-HNA substrate assay, Supplementary Table 2, read-out: ABHD6 Inhibition (%)

Question: What does the source list for `Cl.N=c1ccn2c(n1)O[C@H]1[C@H](O)[C@@H](CO)O[C@H]12` [compound 1, Cyclocytidine HCl]?
Answer: selectivity / potential targets among serine hydrolases in cancer cells [1]: No potential target was found; Antiproliferation activity (pIC50 ± SEM) OVCAR-3 [2]: 5.7 ± 0.3; activity [3, 4]: 89.8%

Question: `O=c1cc(-c2ccc(O)cc2)oc2cc(O)cc(O)c12` [compound 9, Apigenin] was tested. Which IC50 [2] did it give?
Answer: The IC50 was over 10 µM.

Question: What about the activity at 100 µM [3, 4] of the same compound?
Answer: The activity at 100 µM was 88.9%.

Question: For `COc1ccc2cc3[n+](cc2c1OC)CCc1cc2c(cc1-3)OCO2` [compound 17, Berberine chloride], which “selectivity / potential targets among serine hydrolases in cancer cells” value [1] is on record?
Answer: Its value is “No potential target was found”.

Question: And the IC50 [2]?
Answer: The IC50 was over 10 µM.

Question: What about the activity at 100 µM [3, 4] of the same compound?
Answer: Its activity at 100 µM is 112%.

Question: Which “selectivity / potential targets among serine hydrolases in cancer cells” value [1] does the source give for `C[C@H]1COC2=C1C(=O)C(=O)c1c2ccc2c1CCCC2(C)C` [compound 23, Cryptotanshinone] here?
Answer: The value was “broad-spectrum inhibitor by targeting a number of serine hydrolases in cancer cells”.

Question: And the IC50 [2]?
Answer: Its IC50 is 5.01 µM.

Question: And the activity at 100 µM [3, 4]?
Answer: Its activity at 100 µM is 62.5%.

Question: And the inhibition at 100 µM ([3]; recombinant human ABHD6, 100 µM compound)?
Answer: The inhibition at 100 µM was under 50%.

Question: And the “ABHD6 inhibition (%)” value ([3]; recombinant human ABHD6, 100 µM compound, 100 µM)?
Answer: Its value is 37%.

Question: `COc1ccc(C(C)=O)c(O)c1` [compound 64, Paeonol] was tested. Which “selectivity / potential targets among serine hydrolases in cancer cells” value [1] did it give?
Answer: Its value is “No potential target was found”.

Question: And the IC50 [2]?
Answer: Its IC50 is over 10 µM.

Question: What about the activity at 100 µM [3, 4] of the same compound?
Answer: The activity at 100 µM was 96.2%.
